For orientation: mortality means the percentage killed.

Molecules are shown by their SMILES.

What all share (format): in vivo
Assay [1] has as its system German cockroaches (Blattella germanica). The experiment in a line: Spray knockdown test on German cockroaches (Test Examples 1, 2). As to conditions: 5 min, 1.5 ml sprayed, counted after 5 minutes, read-out: knockdown rate; for pest or weed control at 2 %: active ingredient 2.0% w/v oil solution; for pest or weed control at 0.5 %: active ingredient 0.5% w/v oil solution. The procedure: The formulations of Compounds (7), (46), (48) and (54) of the present invention obtained in Formulation Example 7 were diluted with a mixture solution of isopropyl alcohol/deodorized kerosene of 1/9, so as to have a concentration of active ingredient of 2.0% w/v, to prepare a test drug solution.
Ten German cockroaches (Blattella germanica) (5 males and 5 females) were released in a test container (8.75 cm in diameter, 7.5 cm in height, and the bottom made of 16 mesh metallic wire) with the inner wall on which butter was applied, and the container was placed on the bottom of a test chamber (bottom: 46 cm×46 cm, height: 70 cm). From a height of 60 cm above the upper surface of the container, 1.5 ml of the test drug solution was sprayed using a spray gun (a spraying pressure of 0.42 kg/cm^2). Thirty seconds after spraying, the container was taken out from the test chamber, and after 5 minutes, the number of knockdown insects was counted to obtain a knockdown rate. The knockdown rate was calculated by the following equation.
(§1) Knockdown Rate(%)=(Number of Knockdown Insects/Number of Tested Insects)×100
The formulations of Compounds (1), (2), (4), (6) to (8), (10) to (14), (17) to (20), (23) to (25), (28), (31) to (33), (39) to (42), (44) and (50) to (53) of the present invention obtained in Formulation Example 7 were diluted with a mixture solution with a ratio of isopropyl alcohol/deodorized kerosene of 1/9, so as to have a concentration of active ingredient of 0.5% w/v, to prepare a test drug solution.
The test was performed in the same manner as in Test Example 1.

Assay [2] relates to adult houseflies. The experiment in a line: Spray knockdown test on adult houseflies (Test Examples 3, 4). As to conditions: Musca domestica, 10 min, 0.5 ml sprayed, counted after 10 minutes, read-out: knockdown rate; for pest or weed control at 2 %: active ingredient 2.0% w/v oil solution; for pest or weed control at 0.5 %: active ingredient 0.5% w/v oil solution. The procedure: The formulations of Compounds (7), (46) and (48) of the present invention obtained in Formulation Example 7 were diluted with a mixture solution with a ratio of isopropyl alcohol/deodorized kerosene of 1/9, so as to have a concentration of active ingredient of 2.0% w/v, to prepare a test drug solution.
Ten adult houseflies (5 males and 5 females) were released in a polyethylene cup (a bottom diameter of 10.6 cm) which was then capped with 16-mesh nylon gauze. The polyethylene cup was placed on the bottom of a test chamber (bottom: 46 cm×46 cm, height: 70 cm). From a height of 30 cm above the upper surface of the polyethylene cup, 0.5 ml of the test drug solution was sprayed using a spray gun (a spraying pressure of 0.9 kg/cm^2). Immediately after spraying, the cup was taken out from the test container, and after 10 minutes, the number of knockdown insects was counted to obtain a knockdown rate. The knockdown rate was calculated by the following equation.
as §1
The formulations of Compounds (4), (6), (8), (17) to (19), (28), (29), (33), (40) to (42) and (51) to (53) of the present invention obtained in Formulation Example 7 were diluted with a mixture solution with a ratio of isopropyl alcohol/deodorized kerosene of 1/9, so as to have a concentration of active ingredient of 0.5% w/v, to prepare a test drug solution. The test was performed in the same manner as in Test Example 3.

The test system of assay [3] is last instar larvae of common house mosquitoes (Culex pipiens pallens). The assay is described as follows: Larvicidal test on common house mosquito larvae in water (Test Examples 9, 10). Conditions: active ingredient 3.5 ppm in water. As to the method:
Each of the formulations of Compounds (26) and (45) of the present invention obtained in Formulation Example 15 was diluted with water, so as to have a concentration of active ingredient of 500 ppm, to prepare a test drug solution.
0.7 ml of the test drug solution was added to 100 ml of ion-exchanged water (a concentration of active ingredient of 3.5 ppm).
Each of the formulations of Compounds (5), (6), (24), (27), (29), (30), (33), (38) and (47) of the present invention obtained in Formulation Example 15 was diluted with water, so as to have a concentration of active ingredient of 500 ppm, to prepare a test drug solution.

In assay [4] the test system is adult houseflies (Musca domestica). The assay is described as follows: Filter paper/sucrose bait knockdown test on adult houseflies (Test Example 7). Conditions: 0.7 ml on filter paper with sucrose bait, after 2 hours, read-out: knockdown rate. The procedure: Each of the formulations of Compounds (2), (4) to (6), (8), (9), (18), (21) to (23), (27), (29), (32) to (36), (38), (41), (42) and (53) of the present invention obtained in Formulation Example 15 was diluted with water, so as to have a concentration of active ingredient of 500 ppm, to prepare a test drug solution.
On the bottom of a polyethylene cup with a diameter of 5.5 cm, a filter paper of the same size was laid down, and 0.7 ml of the test drug solution was dropped onto the filter paper, then 30 mg of sucrose was uniformly put as bait. Ten adult houseflies (Musca domestica) were released in the polyethylene cup which was then capped. After 2 hours, the number of knockdown insects was counted to obtain a knockdown rate. The knockdown rate was calculated by the following equation.
as §1

Take `CCCCCC/C=C/C(=O)NCC1CCCCO1` (stereo not shown) [Compound (46), (E)-N-(tetrahydropyran-2-ylmethyl)-2-nonenamide]: the pest or weed control at 2 % in assay [1] and in assay [2] was not below 80% in each case. In turn, `CCCCCC/C(C)=C(/F)C(=O)NCC1CCOCC1` [Compound (30), (E)-N-(tetrahydropyran-4-ylmethyl)-2-fluoro-3-methyl-2-nonenamide] gave a mortality at 3.5 ppm in assay [3] (192 h, after 8 days) not below 95%. As to `CCCCCCC/C=C/C(=O)NCC1CCOCC1` [Compound (26), (E)-N-(tetrahydropyran-4-ylmethyl)-2-decenamide], the mortality at 3.5 ppm in assay [3] (after a day) was not below 95%.

Turning to `CCCCCC/C=C/C(=O)NCC1COCCO1` (stereo not shown) [Compound (47), (E)-N-(1,4-dioxan-2-ylmethyl)-2-nonenamide], in assay [3] (192 h, after 8 days), the mortality at 3.5 ppm was not below 95%. Consider `CCCCC/C=C/C(=O)NCC1CCOCC1` [Compound (24), (E)-N-(tetrahydropyran-4-ylmethyl)-2-octenamide], for which the mortality at 3.5 ppm in assay [3] (192 h, after 8 days) is not below 95%.

Regarding `C#CCCCC/C=C/C(=O)NCC1CCOCC1` [Compound (38), (E)-N-(tetrahydropyran-4-ylmethyl)-non-2-en-8-ynamide], the pest or weed control at 500 ppm in assay [4] was 100%. For the same molecule, the mortality at 3.5 ppm in assay [3] (192 h, after 8 days) is not below 95%. Consider `CC1CC1C1CC1/C=C/C(=O)NCC1CCOCC1` (stereo not drawn) [Compound (53), (E)-N-(tetrahydropyran-4-ylmethyl)-3-(trans-2′-(trans-2″-methylcyclopropyl)cyclopropyl)-2-propenamide], for which the pest or weed control at 500 ppm in assay [4] worked out at 100%.

Turning to `CCCCCC/C=C(\F)C(=O)NCC1CCOC1` (stereo not shown) [Compound (7), (Z)—N-(tetrahydrofuran-3-ylmethyl)-2-fluoro-2-nonenamide], the pest or weed control at 2 % in assay [1] and in assay [2] was not below 80% each time. For the molecule `CCCCCC/C=C/C(=O)NCC1CCOC1` (stereo not shown) [Compound (2), (E)-N-(tetrahydrofuran-3-ylmethyl)-2-nonenamide], the pest or weed control at 500 ppm in assay [4] amounted to 100%. Besides, the pest or weed control at 0.5 % in assay [1] was not below 70%. As for `CCCCCC/C=C/C(=O)NCC1(CC)COCOC1` [Compound (48), (E)-N-(5-ethyl-1,3-dioxan-5-ylmethyl)-2-nonenamide], the pest or weed control at 2 % in assay [1] and in assay [2] was not below 80% in each case. As to `CCCCCCC/C=C/C(=O)NCC1CCOC1` (stereo not shown) [Compound (4), (E)-N-(tetrahydrofuran-3-ylmethyl)-2-decenamide], the results for the pest or weed control at 0.5 % in assay [1] and in assay [2] were not below 70% and not below 80%, respectively.

Turning to `CCCCC/C=C/C(=O)NCC1CCOC1` (stereo not shown) [Compound (1), (E)-N-(tetrahydrofuran-3-ylmethyl)-2-octenamide], the pest or weed control at 0.5 % in assay [1] is not below 70%.

Regarding `CCCCCC/C(C)=C(/F)C(=O)NCC1CCOC1` (stereo not shown) [Compound (9), (E)-N-(tetrahydrofuran-3-ylmethyl)-2-fluoro-3-methyl-2-nonenamide], the pest or weed control at 500 ppm in assay [4] came to 100%. In the case of `CCC1CC1CC/C=C/C(=O)NCC1CCOCC1` (stereo not drawn) [Compound (44), (E)-N-(tetrahydropyran-4-ylmethyl)-5-(trans-2′-ethylcyclopropyl)-2-pentenamide], in assay [1], the pest or weed control at 0.5 % was not below 70%.

As to `O=C(/C=C/CCCCCl)NCC1CCOCC1` [Compound (54), (E)-N-(tetrahydropyran-4-ylmethyl)-7-chloro-2-heptenamide], the pest or weed control at 2 % in assay [1] was not below 80%.

`CCCCCC/C(C)=C/C(=O)NCC1CCOC1` (stereo not shown) [Compound (6), (E)-N-(tetrahydrofuran-3-ylmethyl)-3-methyl-2-nonenamide]: the mortality at 3.5 ppm in assay [3] (192 h, after 8 days) was not below 95%. Moreover, the pest or weed control at 0.5 % in assay [2] was not below 80%. On to `CCCCCCCC/C=C/C(=O)NCC1CCOC1` (stereo not shown) [Compound (5), (E)-N-(tetrahydrofuran-3-ylmethyl)-2-undecenamide], for which the mortality at 3.5 ppm in assay [3] (192 h, after 8 days) is not below 95%. Turning to `CCCC1CC1/C=C/C(=O)NCC1CCOC1` (stereo not drawn) [Compound (18), (E)-N-(tetrahydrofuran-3-ylmethyl)-3-(trans-2′-propylcyclopropyl)-2-propenamide], in assay [4], the pest or weed control at 500 ppm came out at 100%.

Values taken from patent publication US20150045409A1, “AMIDE COMPOUND AND USE THEREOF FOR PEST CONTROL” (SUMITOMO CHEMICAL COMPANY, LIMITED, priority 2012, published 2015).
